Source: US20260337187A1, “COMPOUNDS FOR TREATMENT OF INFLAMMATORY PROCESSES” (THORNE LIMITED, priority 2022, published 2026)

What was measured:
[1] = tested on: primary human B lymphocytes; assay: B lymphocyte cytokine release (cytokine array); type: cell-based; details: CD40L and IL4; FIG. 9
Description: The % reduction compared to the stimulated control is shown; average of 2 experiments.
B lymphocyte cytokine release: Primary human B lymphocytes isolated from fresh buffy coat were stimulated at a cell density of 5×10^5/ml in 1 ml by CD40L and IL4 for 5 days in a 24-well plate, and the levels of 105 cytokines in the cell culture supernatant were measured by the R&D Systems Human XL cytokine antibody array as per manufacturer's instructions. The signals were measured by a fluorescence-based photometric read-out in the Li—COR Odyssey Fluorescent imaging system, and the spots quantified by Fiji software.
To investigate the modulation of B lymphocyte cytokine release by B2, primary human B lymphocytes isolated from fresh buffy coat were stimulated by CD40L and IL4 for […] and the levels of 105 cytokines in the cell culture supernatant were measured by the R&D Systems Human XL cytokine array and a fluorescence-based photometric read-out.

SWAP-70 = assay: FACS-FRET of SWAP-70 dimerization in living cells; type: cell-based
Description: B2 was added to the cells 15 minutes prior to stimulation.
(§1) FACS-FRET of SWAP-70 in living cells: The method was in line with that previously described by Betaneli and Jessberger (2020). Briefly, two versions of SWAP-70, differently tagged with the fluorescent dyes Cerulean and Venus, were stably expressed in 293T cells. Upon activation of the cells, e.g., by sodium vanadate, SWAP-70 dimerizes. Thereby the two fluorophores associate and generate a fluorescence resonance energy transfer (FRET) signal, which is measured by FACS. FACS-FRET allows to analyze large numbers of cells simultaneously.
as §1, with “Two” for “FACS-FRET of SWAP-70 in living cells: The method was in line with that previously described by Betaneli and Jessberger (2020). Briefly, two”, “simultaneously. […] B2 was added to the cells 15 minutes prior to stimulation.” for “simultaneously.”

[2] = tested on: human primary neutrophils; assay: Neutrophil ROS production (fMLP triggered, DHR-123, FACS); type: cell-based
Description: The effect of 4 different concentrations (from left to right: 100, 50, 20 and 10 μM) of B2 is shown. Each symbol represents one experiment.
Neutrophil ROS production: Neutrophil reactive oxygen species (ROS) production was measured on human primary neutrophils, isolated from fresh blood samples using the MACSexpress™ neutrophil kit as described in the manufacturer's instructions (Miltenyi Biotec Inc.). Neutrophils in RPMI containing 50 μm dihydrorhodamine 123 (DHR-123) were triggered to produce ROS by treatment with 20 μm bacterial peptide N-formylmethionyl-leucyl-phenylalanine (fMLP) as a physiologically relevant stimulant. ROS were measured by FACS based on the conversion of DHR-123 to Rhodamine-123.
To investigate the effect of neutrophil ROS production by B2, human primary neutrophils, isolated from fresh blood samples, were triggered to produce reactive oxygen species (ROS) by treatment with the bacterial peptide N-formylmethionyl-leucyl-phenylalanine (fMLP) as a physiologically relevant stimulant and ROS were measured by FACS based on the conversion of dihydrorhodamine 123 to rhodamine 123. The effect of 4 different concentrations of B2 is shown (FIG. 2).

[3] = tested on: primary peripheral blood monocytes; assay: Macrophage/monocyte migration to CCL2 (Boyden chamber/Transwell); type: cell-based, human; details: 50 μM B2, towards CCL2 (FIG. 10)
Description: Dark grey: dimethylsulfoxide (DMSO) only; light grey: 50 μM B2. An exemplary experiment out of four is shown.
Macrophage/monocyte migration: Monocytes/macrophages were purified from buffy coats, first by density gradient centrifugation on ficoll to isolate total PBMC, and then by negative selection using the monocyte purification kit from Miltenyi Inc. as per manufacturer's instructions. Monocytes were then resuspended in tissue culture media at a concentration of 5×10^6 per ml. Monocyte migration to CCL2 was then measured using a Boyden chamber assay fitted with a membrane with […] pores. This was performed as follows: 200 μl of cells were pipetted into the upper chamber in the presence or absence of B2 or DMSO control. In the lower chamber 1 ml of the chemokine solution at concentrations of 10 ng/mL and 100 ng/mL, together with the same amount of B2 or DMSO as in the upper chamber was added. Cells were then left to migrate for 6 hours and the number of cells migrating into the lower chamber was ascertained by standard cell counting.
To investigate the inhibition of macrophage/monocyte migration by B2, primary peripheral blood monocytes were isolated from buffy coat and subsequent negative selection. […] Migrated cells were quantified after 5 hours in the presence of carrier (DMSO) only or 50 μM B2 in DMSO (FIG. 10).

Cc1onc(-c2ccccc2Cl)c1C(=O)Nc1nc2ccc([N+](=O)[O-])cc2s1 [B2, 3-(2-chlorophenyl)-5-methyl-N-(6-nitrobenzo[d]thiazol-2-yl)isoxazole-4-carboxamide]
B cell cytokine release profile [1]: reducing specific pro-inflammatory cytokines
FACS-FRET signal, SWAP-70 dimerization at earlier time intervals (SWAP-70; 50 μM B2, 5-10 and 10-15 minutes after stimulation, B2 added 15 minutes prior): inhibition by 50 μM B2 at earlier time intervals
FACS-FRET signal (FRET efficiency), SWAP-70 dimerization (SWAP-70; 50, 25 and 10 μM B2, 20 minutes after stimulation, B2 added 15 minutes prior): inhibition of the FACS-FRET signal
SWAP-70 dimerization in living cells (SWAP-70; 293T cells, sodium vanadate activation): inhibits SWAP-70 dimerization in living cells
inhibition of neutrophil ROS production ([2]; 50 μM B2, fMLP): clear inhibition of ROS production
inhibition of neutrophil ROS production ([2]; 100 μM B2, fMLP): clear inhibition of ROS production
neutrophil ROS production ([2]; fMLP, concentration not given in the sentence (FIG. 2)): substantially reduced
macrophage migration [3]: reduces macrophage migration
